pEC50: −log10 of the molar value. Several values for one entry are separate records, joined by “and”; a condition that tells them apart may be missing. Equal values may be shown once.

The record followed here is publication PMC11073699, “Odorant receptors for floral- and plant-derived volatiles in the yellow fever mosquito, Aedes aegypti (Diptera: Culicidae)” (PLOS ONE, 2024).

What all share (assay type): cell-based
Test [1] has as its target T1, AaegOR13 (Aedes aegypti, UniProt Q16Z13).
T1 sequence (Q16Z13 1-389): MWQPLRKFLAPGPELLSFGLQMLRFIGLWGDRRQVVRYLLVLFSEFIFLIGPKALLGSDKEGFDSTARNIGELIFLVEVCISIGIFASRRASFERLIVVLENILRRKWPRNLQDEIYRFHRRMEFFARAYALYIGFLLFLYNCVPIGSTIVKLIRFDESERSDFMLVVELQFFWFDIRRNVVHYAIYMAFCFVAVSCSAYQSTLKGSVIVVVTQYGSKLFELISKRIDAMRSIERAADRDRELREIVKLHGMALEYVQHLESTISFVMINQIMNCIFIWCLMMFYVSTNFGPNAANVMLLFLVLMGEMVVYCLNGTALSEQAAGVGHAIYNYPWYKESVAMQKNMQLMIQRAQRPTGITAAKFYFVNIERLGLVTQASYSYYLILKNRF
T1 sequence (Q178U6 1-478 partner): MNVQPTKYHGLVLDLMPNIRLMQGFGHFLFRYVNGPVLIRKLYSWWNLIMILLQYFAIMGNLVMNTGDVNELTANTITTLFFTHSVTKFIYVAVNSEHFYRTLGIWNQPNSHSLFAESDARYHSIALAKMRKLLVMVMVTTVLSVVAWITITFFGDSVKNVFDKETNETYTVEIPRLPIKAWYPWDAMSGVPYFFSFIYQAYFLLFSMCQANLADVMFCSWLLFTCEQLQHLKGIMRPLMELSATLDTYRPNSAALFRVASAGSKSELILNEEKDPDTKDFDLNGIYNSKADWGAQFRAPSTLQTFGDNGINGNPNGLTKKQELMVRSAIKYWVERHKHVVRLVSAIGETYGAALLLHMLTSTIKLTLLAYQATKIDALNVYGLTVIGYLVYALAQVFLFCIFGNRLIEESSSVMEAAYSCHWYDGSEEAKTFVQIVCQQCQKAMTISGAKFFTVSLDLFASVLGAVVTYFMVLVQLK
Nature of the test: Two-electrode voltage clamp of Xenopus laevis oocytes expressing AaegOR13/Orco (blends, unitary compounds, concentration-response). As to conditions: unitary compounds. From the text:
(§1) The coding regions of ten AaegOR genes of interest (S3 File) and AaegOrco were synthesized by Twist Bioscience (San Francisco, CA, USA) and cloned into the pENTR plasmid. The Gateway LR directional cloning system (Invitrogen Corp., Carlsbad, CA, USA) was utilized to subclone AaegOR coding regions into the pSP64t-RFA oocyte expression plasmid. Plasmids were purified using the GeneJet Plasmid Miniprep Kit (ThermoFisher Scientific, Waltham, MA, USA). Purified plasmids were sequenced in both directions to confirm coding regions.
(§2) Chemical compounds (S6 File) used in the deorphanization of AaegORs were purchased from Acros Organics (Morris, NJ, USA), Alfa Aesar (Ward Hill, MA, USA), and ThermoFisher Scientific (Waltham, MA, USA) at the highest purity available. Compounds were stored as 1M stocks in 100% DMSO. Serial dilutions of each compound were prepared in 10% DMSO and blended by chemical class.
(§3) pSP64t-RFA: AaegOR clones were linearized using Xbal, and cRNAs were synthesized using the mMESSAGE mMACHINE ® SP6 kit (Life Technologies, Carlsbad, CA, USA). Xenopus laevis stage V-VII oocytes purchased from Xenopus1 (Dexter, MI, USA) were stored at 18°C in Incubation medium (ND96 96 with 5% dialyzed horse serum, 50μg/mL gentamycin, 100μg/mL streptomycin, 100μg/mL penicillin, and 550μg/mL sodium pyruvate). 30nL of cRNA was injected into multiple oocytes using a microinjection syringe pump (World Precision Instruments, Sarasota, FL, USA) maintained at 18°C for 48–72 hrs. Odorant blends were perfused across individual oocytes for 10–15 seconds, held at a resting membrane potential of -80 mV using an OC-725C oocyte clamp (Warner Instruments, LLC, Hamden, CT, USA). Induced currents were measured indirectly using the two-electrode voltage clamp technique (TEVC). Following each stimulus, currents were allowed to return to baseline before further stimulation. Data was captured using the Digidata 1550 B digitizer and PClamp10 software (Molecular Devices, San Jose, CA, USA). Concentration-response curves were generated by perfusing unitary odorants over oocytes at increasing concentrations from [10^-3M] to [10^-9M]. Data were analyzed using GraphPad Prism 8 (GraphPad Software Inc., La Jolla, CA, USA). At least two biological replicates were conducted at each concentration and for each compound. Data for at least seven oocytes responding to each compound was analyzed (S7 File).
In general terms: Two-electrode voltage clamp is typically applied to oocytes expressing channels or transporters.

For test [2], the target named is T2, AaegOR15 (Aedes aegypti, UniProt A0A6B9QIR2).
T2 sequence (A0A6B9QIR2 1-390): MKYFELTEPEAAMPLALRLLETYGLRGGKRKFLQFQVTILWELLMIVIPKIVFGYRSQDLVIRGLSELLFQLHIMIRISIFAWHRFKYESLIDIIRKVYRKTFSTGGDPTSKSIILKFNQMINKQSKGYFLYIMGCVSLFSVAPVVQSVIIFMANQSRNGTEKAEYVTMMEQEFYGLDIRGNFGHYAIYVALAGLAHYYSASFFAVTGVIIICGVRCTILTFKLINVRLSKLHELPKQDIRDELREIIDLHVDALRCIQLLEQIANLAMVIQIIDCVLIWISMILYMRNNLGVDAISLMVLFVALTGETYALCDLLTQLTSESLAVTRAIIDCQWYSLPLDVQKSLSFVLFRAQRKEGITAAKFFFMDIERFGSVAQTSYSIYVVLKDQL
T2 sequence (Q178U6 1-478 partner): T1 sequence (Q178U6 1-478 partner)
Nature of the test: Two-electrode voltage clamp of Xenopus laevis oocytes expressing AaegOR15/Orco (blends, unitary compounds, concentration-response). Particulars: unitary compounds of Alcohols 2; for Raw data (Responses in nA), compounds of blend Alcohols 2: individual oocytes 1-10 (replicates); for Normalized response, compounds of blend Alcohols 2, Average: average of 10 oocytes, 1-hexanol = 100; for Normalized response, compounds of blend Alcohols 2: individual oocytes 1-10, normalized to the largest response of each oocyte (1-hexanol = 100).
Description: as §1, §2, §3

Test [3] addresses T3, AaegOR28 (Aedes aegypti, UniProt Q0IGE1).
T3 sequence (Q0IGE1 1-394): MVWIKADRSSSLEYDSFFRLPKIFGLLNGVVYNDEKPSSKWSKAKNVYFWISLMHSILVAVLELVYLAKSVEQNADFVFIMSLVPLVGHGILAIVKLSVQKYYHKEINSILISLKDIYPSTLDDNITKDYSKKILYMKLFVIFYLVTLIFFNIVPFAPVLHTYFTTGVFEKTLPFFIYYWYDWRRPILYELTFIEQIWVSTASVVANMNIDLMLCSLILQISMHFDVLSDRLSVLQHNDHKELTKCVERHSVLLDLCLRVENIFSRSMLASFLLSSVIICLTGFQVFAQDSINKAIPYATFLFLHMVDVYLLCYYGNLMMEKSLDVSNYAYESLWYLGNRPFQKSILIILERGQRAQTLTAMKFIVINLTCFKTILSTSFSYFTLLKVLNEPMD
T3 sequence (Q178U6 1-478 partner): T1 sequence (Q178U6 1-478 partner)
Nature of the test: Two-electrode voltage clamp of Xenopus laevis oocytes expressing AaegOR28/Orco (blends, unitary compounds, concentration-response). Particulars: for Raw Data (Responses in nA), Alcohols 3 unitary compounds / Normalized response, Average, Alcohols 3 unitary compounds / Normalized response, Alcohols 3 unitary compounds / Raw Data (Responses in nA), concentration-response: AaegOR28; for Raw Data (Responses in nA), Alcohols 3 unitary compounds / Normalized response, Average, Alcohols 3 unitary compounds / Normalized response, Alcohols 3 unitary compounds: compounds of blend Alcohols 3; for Raw Data (Responses in nA), Alcohols 3 unitary compounds: individual oocytes 1-10; for Normalized response, Average, Alcohols 3 unitary compounds: average of 10 oocytes; for Normalized response, Alcohols 3 unitary compounds: individual oocytes 1-10, normalized to largest response of each oocyte; for Raw Data (Responses in nA), concentration-response: individual oocytes 1-8.
Description: as §1, §2, §3

In the case of `CC(C)C12CCC(C)(CC1)O2` [1,4-Cineole], the “Raw data (Responses in nA), unitary compounds of Indoles 1, Alcohols 1, Alcohols 3” value (shortened to “Raw data … Alcohols 1, Alcohols 3”) in test [1] (individual oocytes 1-7) came to 0.0 nA. Besides, in test [2], the “Raw data (Responses in nA), compounds of blend Alcohols 2” value (shortened to “Raw data (Responses in nA), compounds”) is 0.0 nA (6×) and 10.0 nA (4×). Besides, the “Raw Data (Responses in nA), Alcohols 3 unitary compounds” value (from here on “Raw Data … Alcohols 3 unitary compounds”) in test [3] was 0 nA.
As for `CC12CCC(CC1)C(C)(C)O2` [1,8-cineole], in test [1] (individual oocytes 1-7), the “Raw data … Alcohols 1, Alcohols 3” value is recorded as 0.0 nA. Further, in test [2], the “Raw data (Responses in nA), compounds” value is 0.0 nA (3×) and 5.0 nA (3×) and 10.0 nA (4×). Besides, the “Raw Data … Alcohols 3 unitary compounds” value in test [3] was 5 nA and 0 nA (9×).
With `C=C[C@](C)(O)CCC=C(C)C` [(R)-(-)-linalool], in test [2], the “Normalized response, compounds of blend Alcohols 2, Average” value is 2.4; the “Raw data (Responses in nA), compounds” value is 0.0 nA (3×) and 10.0 nA (2×) and 20.0 nA and 25.0 nA and 40.0 nA (2×) and 15.0 nA; the “Normalized response, compounds of blend Alcohols 2” value is 0.0 (3×) and 1.4 and 2.6 and 3.7 (2×) and 1.7 and 5.4 and 5.5. Further, in test [3], the “Normalized response, Average, Alcohols 3 unitary compounds” value was found to be 25.1; the “Raw Data … Alcohols 3 unitary compounds” value was 10 nA (5×) and 5 nA (4×) and 20 nA; the “Normalized response, Alcohols 3 unitary compounds” value was 33.3 and 28.6 and 50.0 and 25.0 and 20.0 and 16.7 and 12.5 and 22.2 (2×) and 20.
Take `C=CCc1ccc(O)c(OC)c1` [Eugenol]: in test [1] (individual oocytes 1-7), the “Raw data … Alcohols 1, Alcohols 3” value was 20.0 nA and 430.0 nA and 105.0 nA and 220.0 nA and 160.0 nA (2×) and 100.0 nA. Further, in test [2], the “Raw data (Responses in nA), compounds” value is 0.0 nA (2×) and 5.0 nA and 10.0 nA (3×) and 15.0 nA (2×) and 30.0 nA and 20.0 nA. Moreover, in test [3], the “Raw Data … Alcohols 3 unitary compounds” value is 0 nA.
On to `C=CC(C)(O)CC/C=C(\C)CC/C=C(\C)CCC=C(C)C` (stereo not shown) [Geranyl Linalool], for which the “Normalized response, unitary compounds, Average” value in test [1] (average of oocytes 1-7) was found to be 0.0. Also, the “Raw data … Alcohols 1, Alcohols 3” value in test [1] (individual oocytes 1-7) turned out to be 0.0 nA. Moreover, the “Normalized response, unitary compounds of Indoles 1, Alcohols 1, Alcohols 3” value in test [1] (normalized per oocyte, individual oocytes 1-7) was 0.0. Also, in test [2], the “Normalized response, compounds of blend Alcohols 2, Average” value is on record as 0.4; the “Raw data (Responses in nA), compounds” value was 0.0 nA (7×) and 10.0 nA (3×); the “Normalized response, compounds of blend Alcohols 2” value is 0.0 (7×) and 1.3 and 0.9 and 1.7. In addition, in test [3], the “Normalized response, Average, Alcohols 3 unitary compounds” value is 0.0; the “Raw Data … Alcohols 3 unitary compounds” value came to 0 nA; the “Normalized response, Alcohols 3 unitary compounds” value was 0.0 (9×) and 0.
Turning to `C=CC1(C)CCC(C(C)(C)O)O1` (stereo not shown) [Linalool Oxide], in test [2], the “Raw data (Responses in nA), compounds” value was 0.0 nA (6×) and 10.0 nA (2×) and 5.0 nA (2×). In addition, the “Raw Data … Alcohols 3 unitary compounds” value in test [3] amounted to 0 nA.
As for `CCC(C)(O)CCCC(C)C` (stereo not shown) [tetrahydrolinalool, Tetrahydrolinalool], in test [1] (individual oocytes 1-7), the “Raw data … Alcohols 1, Alcohols 3” value is 0.0 nA. Besides, in test [2], the “Raw data (Responses in nA), compounds” value was 0.0 nA (3×) and 20.0 nA (4×) and 40.0 nA and 10.0 nA and 5.0 nA. Also, in test [3] (AaegOR28/Orco expressing oocytes, TEVC, concentration-response of normalized current), the pEC50 – broadly, the negative decadic logarithm of the EC50, by convention in mol/L – was 4.36. For the same compound, the “Raw Data … Alcohols 3 unitary compounds” value in test [3] is 30 nA (2×) and 25 nA and 35 nA and 20 nA (2×) and 50 nA and 40 nA and 45 nA and 90 nA. In addition, the “Raw Data (Responses in nA), concentration-response” value was 5 nA (4×) and 0 nA (2×) and 10 nA and 20 nA in test [3] (concentration 1e-6); 30 nA and 10 nA (2×) and 20 nA (4×) and 50 nA in test [3] (concentration 5e-6); 40 nA (3×) and 30 nA (2×) and 50 nA and 45 nA and 95 nA in test [3] (concentration 1e-5); 150 nA and 200 nA and 70 nA and 230 nA and 220 nA and 90 nA and 180 nA and 260 nA in test [3] (concentration 5e-5); 290 nA and 320 nA and 140 nA and 330 nA and 400 nA and 100 nA and 220 nA and 310 nA in test [3] (concentration 0.0001); 380 nA and 530 nA and 180 nA and 400 nA and 480 nA and 105 nA and 230 nA and 340 nA in test [3] (concentration 0.0005). Also, in test [3] (concentration 0.001), the “Raw Data (Responses in nA), concentration-response” value is 400 nA and 440 nA (2×) and 200 nA and 500 nA and 110 nA and 350 nA and 300 nA.
isoeugenol: the “Raw data … Alcohols 1, Alcohols 3” value in test [1] (individual oocytes 1-7) is 0.0 nA and 110.0 nA and 25.0 nA and 40.0 nA and 35.0 nA (2×) and 15.0 nA. Also, the “Raw data (Responses in nA), compounds” value in test [2] is 0.0 nA (5×) and 10.0 nA (2×) and 20.0 nA (3×). In addition, the “Raw Data … Alcohols 3 unitary compounds” value in test [3] was 0 nA.
